Tested on: HaCaT cells
Assay: Concentrations of inflammatory mediators produced by HaCaT cells stimulated with TNFα and IFNγ in presence/absence of JAK inhibitors (ProCarta)
Assay type: cell-based, human
Conditions: TNFα+IFNγ 25 ng/mL each
How it was run: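 HaCaT cells pre-treated 15 min with JAK inhibitors, then stimulated with TNFα and IFNγ (25 ng/mL each) at drug finals of 25, 50, 100 and 200 nM for 24 h at 37 °C. Secreted mediators in media measured by Luminex bead immunoassay; concentrations (pg/mL) from antigen standard curves.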

[1] = drug conc. 1st of 4 rows (cell not shown; prob. 25 nM)
[2] = drug conc. 2nd of 4 rows (cell not shown; prob. 50 nM)
[3] = drug conc. 3rd of 4 rows (cell not shown; prob. 100 nM)

Structure (SMILES): C[C@@H](O)c1nc2cnc3ccsc3c2n1[C@H]1CC[C@H](CC#N)OC1 [Cpd D, ((2R,5S)-5-{2-[(1R)-1-hydroxyethyl]-1H-imidazo[4,5-d]thieno[3,2-b]pyridin-1-yl}tetrahydro-2H-pyran-2-yl)acetonitrile]
- IFN gamma concentration [1]: 24180.78 ± 2901.94 pg/mL
- IL1RA concentration [1]: 5760.33 ± 367.09 pg/mL
- IL1 alpha concentration [1]: 6.8 ± 0.39 pg/mL
- IL1 beta concentration [1]: 8.92 ± 0.42 pg/mL
- IL2 concentration [1]: 31.46 ± 1.56 pg/mL
- IL4 concentration [1]: 7.2 ± 1.25 pg/mL
- IL5 concentration [1]: 26.66 ± 1.72 pg/mL
- IL6 concentration [1]: 743.07 ± 36.3 pg/mL
- IL7 concentration [1]: 2.16 ± 0.11 pg/mL
- IL8 concentration [1]: 2820.21 ± 159.05 pg/mL
- IL9 concentration [1]: 3.7 ± 0^ pg/mL
- IL10 concentration [1]: 0.76 ± 0.08 pg/mL
- IL12p70 concentration [1]: 1.88 ± 0.19 pg/mL
- IL13 concentration [1]: 2.67 ± 0.24 pg/mL
- IL15 concentration [1]: 4.2 ± 0.86 pg/mL
- IL17A concentration [1]: 3.84 ± 0.3 pg/mL
- IL18 concentration [1]: 159.38 ± 4.31 pg/mL
- IL21 concentration [1]: 2.71 ± 0.18 pg/mL
- IL22 concentration [1]: 7.83 ± 0.75 pg/mL
- IL23 concentration [1]: 7.43 ± 0 pg/mL
- IL27 concentration [1]: 7.42 ± 0.9 pg/mL
- IL31 concentration [1]: 2.97 ± 0.37 pg/mL
- IP-10/CXCL10 concentration [1]: 3903.67 ± 366.97 pg/mL
- LIF concentration [1]: 65.71 ± 2.6 pg/mL
- MCP1 concentration [1]: 21968.74 ± 4662.32 pg/mL
- MIP1 alpha concentration [1]: 102.06 ± 4.18 pg/mL
- MIP1 beta concentration [1]: 313.64 ± 8.9 pg/mL
- PDGF-BB concentration [1]: 4.23 ± 0.18 pg/mL
- PIGF-1 concentration [1]: 59.56 ± 3.2 pg/mL
- RANTES concentration [1]: 237.57 ± 17.46 pg/mL
- SCF concentration [1]: 4.18 ± 0.24 pg/mL
- SDF-1 alpha concentration [1]: 3456.41 ± 158.06 pg/mL
- TNF alpha concentration [1]: 8951.15 ± 870.67 pg/mL
- TNF beta concentration [1]: 4.62 ± 0.49 pg/mL
- VEGF-A concentration [1]: 1303.84 ± 56.86 pg/mL
- VEGF-D concentration [1]: 8.7 ± 0.52 pg/mL
- IFN gamma concentration [2]: 25506.14 ± 3960.86 pg/mL
- IL1RA concentration [2]: 5709.52 ± 391.3 pg/mL
- IL1 alpha concentration [2]: 6.76 ± 0.4 pg/mL
- IL1 beta concentration [2]: 8.82 ± 0.46 pg/mL
- IL2 concentration [2]: 29.16 ± 2.01 pg/mL
- IL4 concentration [2]: 5.9 ± 1.18 pg/mL
- IL5 concentration [2]: 28.49 ± 1.85 pg/mL
- IL6 concentration [2]: 698.04 ± 29.79 pg/mL
- IL7 concentration [2]: 2.14 ± 0.07 pg/mL
- IL8 concentration [2]: 2907.08 ± 193.16 pg/mL
- IL9 concentration [2]: 3.37 ± 0.33 pg/mL
- IL10 concentration [2]: 0.67 ± 0.07 pg/mL
- IL12p70 concentration [2]: 1.69 ± 0.19 pg/mL
- IL13 concentration [2]: 2.21 ± 0.27 pg/mL
- IL15 concentration [2]: 2.82 ± 0.72 pg/mL
- IL17A concentration [2]: 4.15 ± 0.57 pg/mL
- IL18 concentration [2]: 156.12 ± 3.47 pg/mL
- IL21 concentration [2]: 2.13 ± 0.39 pg/mL
- IL22 concentration [2]: 8.9 ± 0^ pg/mL
- IL23 concentration [2]: 7.43 ± 0 pg/mL
- IL27 concentration [2]: 5.51 ± 1.25 pg/mL
- IL31 concentration [2]: 3.43 ± 0.31 pg/mL
- IP-10/CXCL10 concentration [2]: 3998.62 ± 456.34 pg/mL
- LIF concentration [2]: 66.01 ± 3.21 pg/mL
- MCP1 concentration [2]: 25836.84 ± 10636.84 pg/mL
- MIP1 alpha concentration [2]: 96.35 ± 3.57 pg/mL
- MIP1 beta concentration [2]: 316.87 ± 10.18 pg/mL
- PDGF-BB concentration [2]: 4.36 ± 0.18 pg/mL
- PIGF-1 concentration [2]: 56.72 ± 3.48 pg/mL
- RANTES concentration [2]: 237.55 ± 21.78 pg/mL
- SCF concentration [2]: 4.1 ± 0.21 pg/mL
- SDF-1 alpha concentration [2]: 3450.69 ± 158.13 pg/mL
- TNF alpha concentration [2]: 9862.6 ± 1041^ pg/mL
- TNF beta concentration [2]: 5.03 ± 0.38 pg/mL
- VEGF-A concentration [2]: 1286.84 ± 61.29 pg/mL
- VEGF-D concentration [2]: 8.49 ± 0.72 pg/mL
- IFN gamma concentration [3]: 29392.77 ± 4832.25 pg/mL
- IL1RA concentration [3]: 5879.83 ± 410.09 pg/mL
- IL1 alpha concentration [3]: 6.92 ± 0.4 pg/mL
- IL1 beta concentration [3]: 8.63 ± 0.36 pg/mL
- IL2 concentration [3]: 29.23 ± 1.62 pg/mL
- IL4 concentration [3]: 5.13 ± 0.78 pg/mL
- IL5 concentration [3]: 27.43 ± 2.11 pg/mL
- IL6 concentration [3]: 703.99 ± 42.22 pg/mL
- IL7 concentration [3]: 2.15 ± 0.14 pg/mL
- IL8 concentration [3]: 3061.2 ± 217.26 pg/mL
- IL9 concentration [3]: 3.58 ± 0.24 pg/mL
- IL10 concentration [3]: 0.81 ± 0.07 pg/mL
- IL12p70 concentration [3]: 1.75 ± 0.22 pg/mL
- IL13 concentration [3]: 2.98 ± 0.4 pg/mL
- IL15 concentration [3]: 3.29 ± 0.9 pg/mL
- IL17A concentration [3]: 3.57 ± 0.45 pg/mL
- IL18 concentration [3]: 156.97 ± 5.2 pg/mL

Reference: patent US12498382B2, “Biomarkers for vitiligo” (INCYTE CORPORATION, priority 2019, dated 2025)
